Experimental data from PMC11002876, “KcsA-Kv1.x chimeras with complete ligand-binding sites provide improved predictivity for screening selective Kv1.x blockers” (The Journal of Biological Chemistry, 2024).
“Also recorded” adds a separate entry of the source. Where a SMILES comes first, the peptide text is derived from it.

Tests used:
Format in all cases: cell-based
[1] = system: human Kv1.3 channel (hKv1.3); conditions: native peptides at 0.1 nM; human lymphocytes; Figs. 6A, S1
Procedure: Human Kv1.3 currents were recorded from activated peripheral blood mononuclear cells (see below) 3 to 4 days after activation. Heparinized human peripheral venous blood was obtained from healthy volunteers. Mononuclear cells were separated through Histopaque-1077 density gradient centrifugation. Collected cells were washed twice with Ca^2+- and Mg^2+-free Hanks’ solution containing 25 mM Hepes buffer, pH 7.4. Cells were cultured for 3 to 4 days in 24-well culture plates in a 5% CO2 incubator at 37 °C, in RPMI 1640 medium supplemented with 10% fetal calf serum (Sigma-Aldrich), 100 μg/ml penicillin, 100 μg/ml streptomycin, and 2 mM L-glutamine (density, 0.5 × 10^6 cells per ml). Phytohemagglutinin A (Sigma-Aldrich) was added to the medium at 10 μg/ml to amplify the Kv1.3 expression. Cells were washed gently twice with 2 ml of ECS for the patch-clamp experiments.
Conventional whole-cell patch-clamp electrophysiology was used to record ionic currents. Micropipettes were pulled from GC150F-7.5 borosilicate capillaries (Harvard Apparatus) with tip diameters between 0.5 and 1 μm resulting in a tip resistance of 2 to 8 MΩ in the extracellular (bath) solution. All measurements were carried out by using Axopatch 200B amplifier connected to a personal computer using Axon Digidata 1550A data acquisition hardware and Pclamp10.7 software (https://support.moleculardevices.com/s/article/Axon-pCLAMP-10-Electrophysiology-Data-Acquisition-Analysis-Software-Download-Page). The holding potential was −120 mV. Records were discarded when leak at the holding potential was >10% of peak current at the test potential. Experiments were performed at room temperature (20–24 °C). Before analysis, whole-cell current traces were corrected for ohmic leakage and digitally filtered with a three-point boxcar smoothing filter.
Solutions: all salts and components of the solutions were purchased from Sigma Aldrich. […]
(§1) Native peptides, phage-expressed peptides, and positive controls used for them were dissolved in ECS supplemented with 0.1 mg/ml bovine serum albumin (BSA; Sigma-Aldrich Hungary). Bath perfusion around the measured cell with different extracellular solutions was achieved using a gravity flow micro perfusion system using a rate of 0.5 ml/min. […]
(§2) Voltage protocols: For measurement of Kv1.1 to 1.3 currents, voltage steps to +50 mV were applied from a holding potential of −120 mV and the peak current was measured every 15 s. […] The remaining current fraction at a given molar concentration was calculated as I/I0, where I0 is the peak current in the absence and I is the peak current at equilibrium block or […] after ∼2 min perfusion by the investigated peptide/phage.

[2] = system: human Kv1.2 channel (hKv1.2); experiment: Whole-cell patch-clamp, hKv1.2-expressing CHO cells; conditions: see Table 1 and Fig. S2; 10 nM peptide in patch-clamp
Procedure: (§3) Chinese Hamster Ovarian cells were grown in Dulbecco’s modified Eagle’s medium–high glucose supplemented with 10% FBS, 2 mM L-glutamine, 100 U/ml penicillin-g, and 100 μg/ml streptomycin (Invitrogen) at 37 °C in a 5% CO2 and 95% air humidified atmosphere. Cells were passaged twice per week following a 5 min incubation in PBS containing 0.2 g/L EDTA. Chinese Hamster Ovarian cells were transiently transfected with plasmids encoding human Kv1.1 (hKCNA1 gene) and human Kv1.2 (hKCNA2 gene) in pCMV6-AC-GFP plasmid (RG211000 and RC222200, OriGene Technologies) using Lipofectamine 2000 (Invitrogen) following the manufacturer’s protocol, then cultured under standard conditions. Transfected cells were washed twice with 2 ml of extracellular solution (ECS, see below) and replated onto 35 mm polystyrene cell culture dishes (Cellstar, Greiner Bio-One) before the patch-clamp experiments. […] In general, currents were recorded 24 to 36 h after transfection.
(§4) Conventional whole-cell patch-clamp electrophysiology was used to record ionic currents. Micropipettes were pulled from GC150F-7.5 borosilicate capillaries (Harvard Apparatus) with tip diameters between 0.5 and 1 μm resulting in a tip resistance of 2 to 8 MΩ in the extracellular (bath) solution. […]
as §1, §2

[3] = system: human Kv1.1 channel (hKv1.1); experiment: Whole-cell patch-clamp, hKv1.1-expressing CHO cells; conditions: see Table 1 and Fig. S3; 1 nM peptide in patch-clamp
Procedure: as §3, §4, §1, §2

Structure (SMILES)	rank order of blocking of native Kv1.3 [1]	potency ranking, Kv1.2 [2]	potency ranking, Kv1.1 [3]
CC[C@H](C)[C@@H]1NC(=O)CNC(=O)[C@H](Cc2ccccc2)NC(=O)[C@H](CCC(N)=O)NC(=O)[C@H](C)NC(=O)[C@H](CCCCN)NC(=O)[C@@H]2CSSC[C@@H](C(=O)N[C@@H](Cc3ccc(O)cc3)C(=O)N3CCC[C@H]3C(=O)N[C@@H](Cc3c[nH]cn3)C(=O)O)NC(=O)[C@H](CCCCN)NC(=O)[C@@H]3CSSC[C@H](NC(=O)[C@H](CCC(N)=O)NC(=O)[C@H](CCCCN)NC(=O)[C@@H]4CCCN4C(=O)[C@H](CO)NC(=O)[C@H]([C@@H](C)O)NC(=O)[C@@H](NC(=O)[C@H](CCCCN)NC(=O)[C@@H](NC(=O)[C@H](CC(=O)O)NC(=O)[C@@H](NC(=O)[C@@H](NC(=O)[C@@H](N)[C@@H](C)O)C(C)C)[C@@H](C)CC)C(C)C)CSSC[C@H](NC(=O)[C@H](CCCCN)NC(=O)[C@H](C)NC(=O)CNC(=O)[C@H](C)NC(=O)[C@H](CCCNC(=N)N)NC1=O)C(=O)N[C@@H](CCSC)C(=O)N[C@@H](CC(N)=O)C(=O)NCC(=O)N[C@@H](CCCCN)C(=O)N3)C(=O)N[C@@H](CC(C)C)C(=O)N1CCC[C@H]1C(=O)N1CCC[C@H]1C(=O)N2 [HgTx1, Hongotoxin-1] (HELM PEPTIDE1{T.V.I.D.V.K.C.T.S.P.K.Q.C.L.P.P.C.K.A.Q.F.G.I.R.A.G.A.K.C.M.N.G.K.C.K.C.Y.P.H}$PEPTIDE1,PEPTIDE1,7:R3-29:R3|PEPTIDE1,PEPTIDE1,13:R3-34:R3|PEPTIDE1,PEPTIDE1,17:R3-36:R3$$$V2.0; N-terminus and C-terminus assumed)	Vm24 > HgTX1 > KTX1		
CC[C@H](C)[C@H](NC(=O)[C@H](CCC(=O)O)NC(=O)[C@@H](NC(=O)CN)C(C)C)C(=O)N[C@@H](CC(N)=O)C(=O)N[C@H](C(=O)N[C@@H](CCCCN)C(=O)N[C@H]1CSSC[C@@H]2NC(=O)[C@H](CCCCN)NC(=O)CNC(=O)[C@H](Cc3ccccc3)NC(=O)[C@H](CCCNC(=N)N)NC(=O)[C@H](CCSC)NC(=O)CNC(=O)[C@H](C)NC(=O)[C@H](CC(=O)O)NC(=O)[C@H](CCCCN)NC(=O)[C@@H]3CSSC[C@@H](C(=O)N[C@H](C(=O)N4CCC[C@H]4C(=O)N[C@@H](CCCCN)C(=O)O)[C@@H](C)O)NC(=O)[C@H](Cc4c[nH]cn4)NC(=O)[C@H](CSSC[C@H](NC(=O)[C@H](CCC(N)=O)NC(=O)[C@@H]4CCCN4C(=O)[C@H](CO)NC(=O)CNC(=O)[C@H](CO)NC1=O)C(=O)N[C@@H](CC(C)C)C(=O)N[C@@H](CCCCN)C(=O)N1CCC[C@H]1C(=O)N3)NC(=O)[C@H](CCCCN)NC(=O)[C@H](CCCNC(=N)N)NC(=O)[C@H](CC(N)=O)NC(=O)[C@H](CCSC)NC2=O)C(C)C [KTX1, Kaliotoxin-1]	Vm24 > HgTX1 > KTX1	MTX > ShK >> KTX1	ShK > KTX1 >> MTX; also recorded: ShK > KTX1 > MTX
CC[C@H](C)[C@@H]1NC(=O)[C@@H]2CSSC[C@H](NC(=O)[C@H](CO)NC(=O)[C@@H](N)C(C)C)C(=O)N[C@@H]([C@@H](C)O)C(=O)NCC(=O)N[C@@H](CO)C(=O)N[C@@H](CCCCN)C(=O)N[C@@H](CC(=O)O)C(=O)N[C@@H](CSSC[C@@H](C(=O)N[C@@H](CCCCN)C(=O)N[C@H]3CSSC[C@@H](C(N)=O)NC(=O)CNC(=O)[C@H](Cc4ccc(O)cc4)NC3=O)NC(=O)[C@H](CO)NC(=O)[C@H](CCCCN)NC(=O)[C@H](CC(N)=O)NC1=O)C(=O)N[C@@H](Cc1ccc(O)cc1)C(=O)N[C@@H](C)C(=O)N1CCC[C@H]1C(=O)N[C@H]1CSSC[C@H](NC(=O)CNC(=O)[C@H]([C@@H](C)O)NC(=O)[C@H](CCC(N)=O)NC(=O)[C@H](CCCCN)NC(=O)[C@H](CCCNC(=N)N)NC1=O)C(=O)N1CCC[C@H]1C(=O)N[C@@H](CC(N)=O)C(=O)N[C@@H](C)C(=O)N[C@@H](CCCCN)C(=O)N2 [MTX, Maurotoxin] (HELM PEPTIDE1{V.S.C.T.G.S.K.D.C.Y.A.P.C.R.K.Q.T.G.C.P.N.A.K.C.I.N.K.S.C.K.C.Y.G.C.[am]}$PEPTIDE1,PEPTIDE1,3:R3-24:R3|PEPTIDE1,PEPTIDE1,9:R3-29:R3|PEPTIDE1,PEPTIDE1,13:R3-19:R3|PEPTIDE1,PEPTIDE1,31:R3-34:R3$$$V2.0; N-terminus and C-terminus assumed)		MTX > ShK >> KTX1	ShK > KTX1 >> MTX; also recorded: ShK > KTX1 > MTX
CC[C@H](C)[C@@H]1NC(=O)[C@@H](NC(=O)[C@H](CO)NC(=O)[C@@H](N)CCCNC(=N)N)CSSC[C@@H](C(=O)O)NC(=O)[C@H]([C@@H](C)O)NC(=O)CNC(=O)[C@@H]2CSSC[C@@H]3NC(=O)[C@H](CCC(N)=O)NC(=O)[C@H](Cc4ccccc4)NC(=O)[C@H](C)NC(=O)[C@H]([C@@H](C)O)NC(=O)[C@H](CSSC[C@H](NC(=O)[C@H](Cc4ccccc4)NC(=O)[C@H](CO)NC(=O)[C@H](CC(C)C)NC(=O)[C@H](CCCNC(=N)N)NC(=O)[C@H](Cc4ccc(O)cc4)NC(=O)[C@H](CCCCN)NC(=O)[C@H](CCSC)NC(=O)[C@H](CO)NC(=O)[C@H](Cc4c[nH]cn4)NC(=O)[C@H](CCCCN)NC3=O)C(=O)N[C@@H](CCCNC(=N)N)C(=O)N[C@@H](CCCCN)C(=O)N[C@@H]([C@@H](C)O)C(=O)N2)NC(=O)[C@H](CCCNC(=N)N)NC(=O)[C@H](CO)NC(=O)[C@H](CCCCN)NC(=O)[C@@H]2CCCN2C(=O)[C@H]([C@@H](C)CC)NC(=O)[C@H]([C@@H](C)O)NC(=O)[C@H](CC(=O)O)NC1=O [ShK, Stichodactyla toxin]		MTX > ShK >> KTX1	ShK > KTX1 >> MTX; also recorded: ShK > KTX1 > MTX
CC[C@H](C)[C@H](NC(=O)[C@H](C)NC(=O)[C@H](C)NC(=O)[C@H](C)N)C(=O)N[C@@H](CO)C(=O)N[C@H]1CSSC[C@@H]2NC(=O)[C@H](CCCCN)NC(=O)CNC(=O)[C@H](CC(N)=O)NC(=O)[C@H](CCCCN)NC(=O)[C@@H]3CSSC[C@@H](C(N)=O)NC(=O)[C@H](Cc4ccc(O)cc4)NC(=O)[C@H](Cc4ccc(O)cc4)NC(=O)[C@@H]4CSSC[C@H](NC(=O)[C@H](CCCCN)NC(=O)[C@@H]5CCCN5C(=O)[C@@H]5CCCN5C(=O)[C@H](CSSC[C@H](NC(=O)[C@H](CCCCN)NC(=O)[C@H](CCCNC(=N)N)NC(=O)[C@H](CC(N)=O)NC(=O)[C@H](CCSC)NC2=O)C(=O)N[C@@H](CCCCN)C(=O)N4)NC(=O)[C@H](CCC(=O)O)NC(=O)[C@@H]2CCCN2C(=O)[C@H](CO)NC(=O)CNC(=O)[C@H](C(C)C)NC1=O)C(=O)N[C@@H](CCCNC(=N)N)C(=O)N[C@@H](C)C(=O)N[C@@H](CCC(N)=O)C(=O)NCC(=O)N3 [Vm24, Vm24 toxin]	Vm24 > HgTX1 > KTX1		
